Our source for the LC50 and Activity values is ChEMBL document CHEMBL1149725, “4-acetylaplykurodin B and aplykurodinone B, two ichthyotoxic degraded sterols from the Mediterranean mollusk Aplysia fasciata” (J Nat Prod, 1992).

Structures are written as SMILES.

For orientation: LC50 means the concentration lethal to half of the exposed cells or organisms. Higher therefore signals lower toxicity.

Assay type in all cases: organism-based; call rule not given here
What all share (conditions): in vivo

One data set has as its system Artemia salina. Kind of data set: Toxicity in Artemia salina.
A further data set concerns Carassius auratus. Description: Ichthyotoxicity in Carassius auratus at 60 ug/cm'2 by antifeedant assay.
In the next data set the test system is Gambusia affinis. Description: Toxicity in Gambusia affinis at 10 ppm.

Compound `CC(=O)O[C@H]1CC[C@@]2(C)[C@H]3[C@H]1CC(=O)O[C@H]3C[C@@H]2[C@H](C)CCC=C(C)C` [4-ACETYLAPLYKURODIN B] yielded an LC50 in the data set on Artemia salina of 29.1 ppm. For the same compound, the figures for the Activity result in the data set on Carassius auratus and in the data set with Gambusia affinis were “Active” and “Toxic”, respectively.
On to `CC(C)=CCC[C@@H](C)[C@H]1C[C@@H]2OC(=O)C[C@H]3C(=O)CC[C@@]1(C)[C@H]23` [APLYKURODINONE], for which the Activity result in the data set with Carassius auratus is recorded as “Active”; in the data set with Gambusia affinis it was “Toxic”.
